Experimental data: patent publication US9457033B2, “Steroid alkaloids and uses thereof as antimicrobial agents against electron transport-deficient microbes and as potentiators for antimicrobial agents against pathogenic bacteria” (priority 2011, dated 2016)

Tests used:
S. aureus ATCC 29213 [1] = experiment: MIC, microdilution in CAMHB 24 h, with or without tomatidine/compound; format: cell-based, Staphylococcus aureus; settings: for MIC −TO: absence of tomatidine
S. aureus ATCC 29213 [2] = experiment: Checkerboard assay, aminoglycoside and tomatidine; format: cell-based, Staphylococcus aureus; settings: for Aminoglycoside MIC: checkerboard
Method: This checkerboard protocol (Eliopoulos and Moellering, 1996) was conducted by a microdilution method similar to that use for standard MICs determination. In 96 wells plates, antibiotics were loaded at a 4× concentration (where X is the maximal tested concentration) in well A1 and at a 2× concentration in the others wells of the column 1. Antibiotics were serially diluted 1:1 from the column 2 to column 10. […] Wells A12, B12, […] are positive untreated controls whereas wells […] are negative non-inoculated controls. […] The FIC index was calculated as follow (Eliopoulos and Moellering, 1996): FIC […]/MICB, where A and B are MICs of compounds A and B in combination and where MICA and MICB are the MICs of compound A alone and of compound B alone, respectively, and FICA and FICB are the FICs of compound A and of compound B, respectively.

S. aureus 8325-4 = experiment: MIC, microdilution in CAMHB 24 h; format: cell-based, Staphylococcus aureus; settings: 8325-4
S. aureus Newbould = experiment: MIC, microdilution in CAMHB 24 h; format: cell-based, Staphylococcus aureus; settings: Newbould
S. aureus SHY97-3906 = experiment: MIC, microdilution in CAMHB 24 h; format: cell-based, Staphylococcus aureus
S. aureus ATCC 43300 = experiment: MIC, microdilution in CAMHB 24 h; format: cell-based, Staphylococcus aureus; settings: ATCC 43300
S. aureus N315 = experiment: microbe, parasite or virus in culture; format: cell-based, Staphylococcus aureus
S. aureus Newman = experiment: MIC, microdilution in CAMHB 24 h; format: cell-based, Staphylococcus aureus; settings: Newman
S. aureus MRSA COL = experiment: MIC, microdilution in CAMHB 24 h; format: cell-based, Staphylococcus aureus; settings: MRSA COL
S. aureus Sa220c = experiment: MIC, microdilution in CAMHB 24 h; format: cell-based, Staphylococcus aureus; settings: Sa220c
S. aureus CF1A-L = experiment: MIC, microdilution in CAMHB 24 h; format: cell-based, Staphylococcus aureus; settings: CF1A-L
S. aureus CF4B-L = experiment: MIC, microdilution in CAMHB 24 h; format: cell-based, Staphylococcus aureus; settings: CF4B-L
S. aureus CF6B-L = experiment: MIC, microdilution in CAMHB 24 h; format: cell-based, Staphylococcus aureus; settings: CF6B-L
S. aureus CF7A-L = experiment: MIC, microdilution in CAMHB 24 h; format: cell-based, Staphylococcus aureus; settings: CF7A-L
S. aureus CF8E-L = experiment: MIC, microdilution in CAMHB 24 h; format: cell-based, Staphylococcus aureus; settings: CF8E-L
S. aureus CF9A-L = experiment: MIC, microdilution in CAMHB 24 h; format: cell-based, Staphylococcus aureus; settings: CF9A-L
S. aureus CF35A-L = experiment: MIC, microdilution in CAMHB 24 h; format: cell-based, Staphylococcus aureus; settings: CF35A-L
S. aureus CF07-L = experiment: MIC, microdilution in CAMHB 24 h; format: cell-based, Staphylococcus aureus; settings: CF07-L
S. aureus ATCC 29213 [3] = experiment: Time-kill experiments, aminoglycoside alone or with tomatidine (FIGS. 8-10)
[4] = ATCC 29123, 8 μg/ml of tomatidine
[5] = SHY-3906, 8 μg/ml of tomatidine
[6] = ant(4′)-Ia, 8 μg/ml of tomatidine
[7] = ant(4′)-Ia, absence of tomatidine

## gentamicin
S. aureus ATCC 29213 [1]; [4]
  Fold (−TO/+TO): 8-32 fold
  MIC +TO: 0.03 to 0.06 µg/mL
S. aureus ATCC 29213 [1]; ATCC 29123
  MIC −TO: 0.5 to 1 µg/mL
S. aureus ATCC 29213 [1]; ATCC 29213, Human (SSTI)
  MIC: 0.5 to 1 µg/mL
S. aureus ATCC 29213 [1]; ATCC 29213
  MIC −TO: 0.5-1^ μg/ml
S. aureus ATCC 29213 [1]; ATCC 29213, presence of tomatidine at 8 μg/ml
  MIC +TO: 0.03 to 0.06 µg/mL
S. aureus ATCC 29213 [1]; ATCC 29213, tomatidine at 8 μg/ml
  Fold (−TO/+TO): 8-32 fold
S. aureus ATCC 29213 [2]; aminoglycoside with tomatidine, tomatidine MIC considered 32 μg/ml, values overestimated
  FIC index: ≦0.116
S. aureus ATCC 29213 [2]; tomatidine 0 μg/ml
  Aminoglycoside MIC: 0.5 to 1 µg/mL
S. aureus ATCC 29213 [2]; tomatidine 0.06 μg/ml
  Aminoglycoside MIC: 0.25 µg/mL
S. aureus ATCC 29213 [2]; tomatidine 0.12 μg/ml
  Aminoglycoside MIC: 0.06 to 0.25 µg/mL
S. aureus ATCC 29213 [2]; tomatidine 0.25 μg/ml
  Aminoglycoside MIC: 0.06 µg/mL
S. aureus ATCC 29213 [2]; tomatidine 0.5 μg/ml
  Aminoglycoside MIC: 0.06 µg/mL
S. aureus ATCC 29213 [2]; tomatidine 1 μg/ml
  Aminoglycoside MIC: 0.03 to 0.06 µg/mL
S. aureus ATCC 29213 [2]; tomatidine 2 μg/ml
  Aminoglycoside MIC: 0.06 to 0.12 µg/mL
S. aureus ATCC 29213 [2]; tomatidine 4 μg/ml
  Aminoglycoside MIC: 0.03 to 0.12 µg/mL
S. aureus ATCC 29213 [2]; tomatidine 8 μg/ml
  Aminoglycoside MIC: 0.03 to 0.06 µg/mL
S. aureus 8325-4; 8 μg/ml of tomatidine
  Fold (−TO/+TO): 4 fold
  MIC +TO: 0.03 to 0.06 µg/mL
S. aureus 8325-4; Laboratory strain
  MIC: 0.12 to 0.25 µg/mL
S. aureus 8325-4; absence of tomatidine
  MIC −TO: 0.12 to 0.25 µg/mL
S. aureus Newbould; 8 μg/ml of tomatidine
  MIC +TO: 0.06 µg/mL
S. aureus Newbould; Cow (mastitis)
  MIC: 0.5 to 1 µg/mL
S. aureus Newbould; absence of tomatidine
  MIC −TO: 0.5 to 1 µg/mL
S. aureus SHY97-3906; SHY97-3906, Cow (mastitis)
  MIC: 0.25 µg/mL
S. aureus SHY97-3906; [5]
  Fold (−TO/+TO): 4-8 fold
  MIC +TO: 0.03 to 0.06 µg/mL
S. aureus SHY97-3906; SHY-3906, absence of tomatidine
  MIC −TO: 0.25 µg/mL
S. aureus ATCC 43300; 8 μg/ml of tomatidine
  Fold (−TO/+TO): 4 fold
  MIC +TO: 16 to 32 µg/mL
S. aureus ATCC 43300; Human (HA), MRSA
  MIC: 64-128 (R) μg/ml
S. aureus ATCC 43300; absence of tomatidine
  MIC −TO: 64 to 128 µg/mL
S. aureus N315; N315, ant(4′)-Ia, 8 μg/ml of tomatidine
  MIC +TO: 0.12 µg/mL
S. aureus N315; N315, ant(4′)-Ia, absence of tomatidine
  MIC −TO: 1 µg/mL
S. aureus N315; N315, 8 μg/ml of tomatidine
  Fold (−TO/+TO): 8 fold
S. aureus N315; N315, Human (HA), MRSA
  MIC: 1 µg/mL
S. aureus Newman; 8 μg/ml of tomatidine
  Fold (−TO/+TO): 8-16 fold
  MIC +TO: 0.06 µg/mL
S. aureus Newman; Human (Osteo)
  MIC: 0.5 to 1 µg/mL
S. aureus Newman; absence of tomatidine
  MIC −TO: 0.5 to 1 µg/mL
S. aureus MRSA COL; 8 μg/ml of tomatidine
  Fold (−TO/+TO): 8-16 fold
  MIC +TO: 0.06 µg/mL
S. aureus MRSA COL; Human (SSTI)
  MIC: 0.5 to 1 µg/mL
S. aureus MRSA COL; absence of tomatidine
  MIC −TO: 0.5 to 1 µg/mL
S. aureus Sa220c; 8 μg/ml of tomatidine
  Fold (−TO/+TO): 4-8 fold
  MIC +TO: 0.06 to 0.12 µg/mL
S. aureus Sa220c; Human (SSTI), MRSA
  MIC: 0.5 µg/mL
S. aureus Sa220c; absence of tomatidine
  MIC −TO: 0.5 µg/mL
S. aureus CF1A-L; 8 μg/ml of tomatidine
  Fold (−TO/+TO): 4-8 fold
  MIC +TO: 0.12 µg/mL
S. aureus CF1A-L; Human (CF lungs)
  MIC: 0.5 to 1 µg/mL
S. aureus CF1A-L; absence of tomatidine
  MIC −TO: 0.5 to 1 µg/mL
S. aureus CF4B-L; 8 μg/ml of tomatidine
  Fold (−TO/+TO): 4-8 fold
  MIC +TO: 0.06 to 0.12 µg/mL
S. aureus CF4B-L; Human (CF lungs)
  MIC: 0.5 µg/mL
S. aureus CF4B-L; absence of tomatidine
  MIC −TO: 0.5 µg/mL
S. aureus CF6B-L; aac(6′)-aph(2″), 8 μg/ml of tomatidine
  MIC +TO: 16 to 32 µg/mL
S. aureus CF6B-L; aac(6′)-aph(2″), absence of tomatidine
  MIC −TO: 128 to 256 µg/mL
S. aureus CF6B-L; 8 μg/ml of tomatidine
  Fold (−TO/+TO): 4-8 fold
S. aureus CF6B-L; Human (CF lungs)
  MIC: 128-256 (R) μg/ml
S. aureus CF7A-L; [6]
  MIC +TO: 0.12 to 0.25 µg/mL
S. aureus CF7A-L; [7]
  MIC −TO: 0.5 to 1 µg/mL
S. aureus CF7A-L; 8 μg/ml of tomatidine
  Fold (−TO/+TO): 2-8 fold
S. aureus CF7A-L; Human (CF lungs), MRSA
  MIC: 0.5 to 1 µg/mL
S. aureus CF8E-L; 8 μg/ml of tomatidine
  Fold (−TO/+TO): 2-4 fold
  MIC +TO: 0.25 to 0.5 µg/mL
S. aureus CF8E-L; Human (CF lungs)
  MIC: 1 µg/mL
S. aureus CF8E-L; absence of tomatidine
  MIC −TO: 1 µg/mL
S. aureus CF9A-L; [6]
  MIC +TO: 0.06 to 0.12 µg/mL
S. aureus CF9A-L; [7]
  MIC −TO: 0.5 to 1 µg/mL
S. aureus CF9A-L; 8 μg/ml of tomatidine
  Fold (−TO/+TO): 4-8 fold
S. aureus CF9A-L; Human (CF lungs), MRSA
  MIC: 0.5 to 1 µg/mL
S. aureus CF35A-L; 8 μg/ml of tomatidine
  Fold (−TO/+TO): 8 fold
  MIC +TO: 0.06 to 0.12 µg/mL
S. aureus CF35A-L; Human (CF lungs), MRSA
  MIC: 0.5 to 1 µg/mL
S. aureus CF35A-L; absence of tomatidine
  MIC −TO: 0.5 to 1 µg/mL
S. aureus CF07-L; 8 μg/ml of tomatidine
  Fold (−TO/+TO): 4-8 fold
  MIC +TO: 0.06 to 0.25 µg/mL
S. aureus CF07-L; Human (CF lungs)
  MIC: 0.5 to 1 µg/mL
S. aureus CF07-L; absence of tomatidine
  MIC −TO: 0.5 to 1 µg/mL
S. aureus ATCC 29213 [3]; alone at ≧1×MIC (1 μg/ml), regrowth observed within 24 h, FIG. 9
  time-kill activity alone: bactericidal
S. aureus ATCC 29213 [3]; gentamicin 0.06 μg/ml combined with tomatidine 8, FIG. 8
  time-kill activity of combination: strong bactericidal activity
